For assay [1], the system named is Mucin 5AC. Briefly: Western blot: LPS-induced expression of Mucin 5AC in NCI-H929 cells. The format is cell-based, human. The note with it: 1 μg/mL LPS, 24 hours, vs control group. The text has this: As indicated above, the hypersecretion of mucus in airway can be observed in the patients suffering from pulmonary injury-related diseases, such as chronic obstructive pulmonary disease and emphysema, and the mucus hypersecretion is associated with the overexpression of mucins in pulmonary tissue. Symptoms like the increased sputum production will occur in the patients suffering from the mucin hypersecretion in airway, and the increased sputum will accumulate in the airway and lung, thereby making the airway narrow and increasing respiratory resistance. To investigate the effects of active ingredients of FU-LING extract in regulating, preventing, and/or treating the pulmonary injury-related diseases, such as chronic obstructive pulmonary disease and emphysema, a Western blot was conducted to measure the inhibitory rate of active ingredients of FU-LING extract (tumulosic acid and poricoic acid A) on the LPS-induced expression of Mucin 5AC in human lung epithelial NCI-H929 cells.
Human lung epithelial NCI-H929 cells were divided into ten groups and separately cultivated with the following media for 24 hours:
(1) Control group: an epithelial cell growth medium containing […];
(2) Positive control group: an epithelial cell growth medium containing 1 μg/mL LPS and 10 μM Dex;
(3) TA group (including four sub-groups): an epithelial cell growth medium containing […] the tumulosic acid (TA) provided by [preparation example C-1], wherein the tumulosic acid (TA) is present in the four sub-groups at a concentration of 1.56, 3.13, 6.25 and 12.5 μg/mL respectively; and
(4) PAA group (including four sub-groups): an epithelial cell growth medium containing 1 μg/mL LPS the poricoic acid A (PAA) provided by [preparation example C-1], wherein the poricoic acid A (PAA) is present in the four sub-groups at a concentration of 6.25, 12.5, 25 and 50 μg/mL respectively.
Thereafter, the proteins in the cells of each group were extracted and then subjected to a Western blot to measure the expression level of Mucin 5AC. The relative expression level of Mucin 5AC of each group was calculated by using the results of the control group as a basis (i.e., the expression level of control group was served as 1-fold).

Assay [2] has as its system active-form MMP-9. Kind of assay: Western blot: active-form MMP-9 expression in LPS-treated NR8383 cells. The format is cell-based, rat. The following applies: 0.01 μg/mL LPS; 12.5 μg/mL; 24 hours; vs control group. The protocol:
(§1) Rat alveolar macrophage NR8383 cells were divided into six groups and separately cultivated with the following media for 24 hours: • (1) Control group: a macrophage growth medium containing 0.01 μg/mL LPS; • (2) Positive control group: a macrophage growth medium containing 0.01 μg/mL LPS and 1 μM Dex; and • (3) Extract A group (including four sub-groups): a macrophage growth medium containing 0.01 μg/mL LPS and the extract A provided by [preparation example A-2-2], wherein the extract A is present in the four sub-groups at a concentration of 6.25, 12.5, 25 and 50 μg/mL respectively.
(§2) Thereafter, the proteins in the cells of each group were extracted and then subjected to a Western blot to measure the expression level of pro-form MMP-9 (i.e., the zymogen form of MMP-9), active-form MMP-9 and MMP-12. The relative expression level of pro-form MMP-9, active-form MMP-9 and MMP-12 of each group was calculated by using the results of the control group as a basis (i.e., the expression level of control group was served as 1-fold).
(§3) Rat alveolar macrophage NR8383 cells were divided into ten groups and separately cultivated with the following media for 24 hours:
(§4) (1) Control group: a macrophage growth medium containing 0.01 μg/mL LPS;
(§5) (2) Positive control group: a macrophage growth medium containing 0.01 μg/mL LPS and 1 μM Dex; […]
Background: A western blot detects proteins with antibodies after separation by electrophoresis.

For assay [3], the system named is MMP-12. Briefly: Western blot: MMP-12 expression in LPS-treated NR8383 cells. The format is cell-based, rat. The note with it: 0.01 μg/mL LPS; 12.5 μg/mL; 24 hours; vs control group. The protocol:
as §1, §2, §3, §4, §5

Assay [4] has as its system MMP-9. Briefly: Gelatin zymography: LPS-activated active expression of MMP-9 in NR8383 cells. The note with it: Table 4, LPS 1 μg/mL, 24 hours. The format is cell-based, rat. The source says:
As indicated above, when an inflammatory response occurs in animal's pulmonary tissue, the active inflammatory cells will secret MMPs that will destroy the pulmonary tissue structure, cause more serious pulmonary injury, and lead to the decrement in or the loss of pulmonary functions. […]
Thereafter, the medium of each group was collected and respectively subjected to the following procedures. A 10% polyacrylamide gel containing 0.2% gelatin was used to carry out the sodium dodecyl sulfate polyacrylamide gel electrophoresis (SDS-PAGE). After the electrophoresis was completed, the gel was sequentially soaked in 2.5% Triton X-100 solution for 90 minutes to remove SDS, soaked in distillation-distillation water (ddH2O) for 30 minutes, and placed in a reaction solution (50 mM Tris-HCl buffer containing 10 mM CaCl2 and 0.02% NaN3) at a temperature of 37° C. for 18 hours. After the foregoing reaction was completed, the gel was stained by a Coomassie blue staining solution, and the image of stained gel was taken and subjected to an image analysis. The image intensity (the image intensity was calculated based on the size of area and the shade of color) of highlight band (i.e., the gelatin in this area was degraded by MMPs, wherein the area locating around 95 kD molecular weight) on the gel of each group can reflect the active expression of MMP-9 of rat alveolar macrophage NR8383 cells under different conditions (the relative active expression of MMP-9 was calculated by serving the results of the blank group as 0% and serving that of the control group as 100%).
Rat alveolar macrophage NR8383 cells were divided into twenty-eight groups and separately cultivated with the following media for 24 hours: • (1) Blank group: a macrophage growth medium; • (2) Control group: a macrophage growth medium containing 1 μg/mL LPS; • (3) Positive control group: a macrophage growth medium containing 1 μg/mL LPS and 5 μM Prednisolone (a type of corticosteroid; abbreviated as “Pred”; purchased from Sigma-Aldrich); • (4) Extract C (including five sub-groups): a macrophage growth medium containing 1 μg/mL LPS and the extract C provided by [preparation example A-3-2], wherein the extract C is present in the five sub-groups at a concentration of […] respectively; • (5) Extract D (including five sub-groups): a macrophage growth medium containing 1 μg/mL UPS and the extract D provided by [preparation example A-4-2], wherein the extract D is present in the five sub-groups at a concentration of 0.78, 1.56, 3.13, 6.25 and 12.5 respectively; • (6) Extract E (including five sub-groups): a macrophage growth medium containing 1 μg/mL LPS and the extract E provided from [preparation example A-4-3], wherein the extract E is present in the five sub-groups at a concentration of 0.78, 1.56, 3.13, […], and 12.5 respectively; • (7) DATA group (including five sub-groups): a macrophage growth medium containing 1 μg/mL LPS and the dehydrotrametenolic acid (DTTA) provided by [preparation example C-1], wherein the dehydrotrametenolic acid (DTTA) is present in the five sub-groups at a concentration of 0.39, 0.78, 1.56, 3.13 and 6.25 μg/mL respectively; and • (8) PAA group (including live sub-groups): a macrophage growth medium containing 1 μg/mL LPS and the poricoic acid A (PAA) provided from [preparation example C-1], wherein the poricoic acid A (PAA) is present in the five sub-groups at a concentration of 6.25, 12.5, 25, 50 and 100 respectively.
Thereafter, the medium of each group was collected and analyzed by the analyzing procedures same as that of (1-1).

Assay [5] concerns pro-form MMP-9. Briefly: Western blot: pro-form MMP-9 expression in LPS-treated NR8383 cells. The note with it: 0.01 μg/mL LPS; 12.5 μg/mL; 24 hours; vs control group. The format is cell-based, rat. The protocol: as §1, §2, §3, §4, §5

Structures are written as SMILES.

In the case of `C=C(CC[C@@H](C(=O)O)[C@H]1[C@H](O)C[C@@]2(C)C3=C(CC[C@]12C)[C@@]1(C)CC[C@H](O)C(C)(C)[C@@H]1CC3)C(C)C` [TA, tumulosic acid], the “Inhibitory rate on LPS-induced expression of Mucin 5AC” value in assay [1] (1.56 μg/mL (low-dose)) is on record as “up to 75%”; in assay [1] (12.5 μg/mL (high-dose)), no more than 81%. For the same compound, in assay [2], the “Inhibitory rate on the expression level of active-form MMP-9” value came to 100%. Moreover, the “Inhibitory rate on the expression level of MMP-12” value in assay [3] was determined as 45%. Further, the “Relative active expression of MMP-9 (%)” value in assay [4] (3.13 μg/mL) turned out to be 60.6%; in assay [4] (6.25 μg/mL), 28.4%; in assay [4] (12.5 μg/mL) it was 0%. Further, the “Inhibitory rate on the expression level of pro-form MMP-9” value in assay [5] was 53%.

Source of the values: patent US10973863B2, “Method for regulating, preventing and/or treating pulmonary injury” (SINPHAR PHARMACEUTICAL CO., LTD., priority 2017, dated 2021).
